Laboratory results published in US12630529B2, “GCN2 modulator compounds” (ALESTA THERAPEUTICS BV, priority 2020, dated 2026).
pIC50: −log10 of the molar value.

What was measured:
GCN2 [1] = target: T1, GCN2 (Homo sapiens, UniProt Q9P2K8); test: GCN2 enzyme inhibition assay (Reaction Biology EIF2AK4/GCN2 kinase assay); type: biochemical; parameters: purchased Reaction Biology Corp; details: human GCN2 enzyme activity, 10 μM ATP, 20 μM peptide substrate
Method: In order to validate the above results, human GCN2 enzyme activity was measured in Reaction Biology Corp (EIF2AK4/GCN2 kinase assay). Compounds were tested in 5-dose IC50 mode for non-active compounds and 10-dose IC50 mode for active compounds with 3-fold serial dilution starting at 30 μM and 0.1 μM respectively. Control compound Staurosporine was tested in 10-dose IC50 mode with 4-fold serial dilution starting at 20 μM. Reactions were carried out at 10 μM ATP using 20 μM peptide substrate [GRSRSRSRSR]. For IC50 values: +++ refers to <10 nM of test compound; ++ refers to 10 nM to 100 nM of test compound; + refers to 100 nM to 1,000 nM of test compound and − refers to >1,000 nM of test compound.

GCN2 [2] = target: T1, GCN2; test: GCN2 activation induced by arginine starvation (Western blot); type: cell-based; parameters: endogenous in cells; host or cells: HT29 and HCT116; details: HT29 and HCT116 colorectal cancer cell lines, 24 hours
Method: Colorectal cancer cell lines HT29 and HCT116 were seeded at a concentration of 100×10^3 cells per well in 6 well plates, in SILAC DMEM Flex media supplemented with 10% fetal bovine serum, 1 g/L glucose, 2 mM glutamine, 800 μM lysine, and various concentrations of arginine in the absence or presence of Compound 1 and Compound 2 GCN2 inhibitors. Cells were cultured for 24 hours.
Following 24 hours of culture, expression of phosphorylated GCN2 (P-GCN2) and alpha-actinin loading control was assessed by Western blot. Briefly, cells were washed with cold PBS and dissolved in cell lysis buffer containing 1% Triton, supplemented with protease inhibitors and phosphatase inhibitors. All lysates were freshly prepared and normalized using a BCA protein assay before addition of LDS sample buffer and denaturation by boiling the samples for 5 minutes at 95° C. Proteins were separated on 4-12% Bis-Tris protein gels in MOPS SDS buffer and electrophoresis was performed (e.g., Novex NuPAGE® Gel Electrophoresis Systems; Invitrogen). Transfer of the protein samples was performed (e.g., using the Mini Trans-Blot Cell® system; Bio-Rad) with 0.45 μM pore Nitrocellulose/Filter paper sandwiches and transfer buffer at 350 mA for 90 minutes at 4° C. Membranes were blocked for 1 hour with 4% BSA in TBS-Tween at room temperature and incubated with 1:1,000 dilutions of anti-GCN2, phospho-GCN2, α-actinin1, and/or p21 (Waf/Cip1) antibodies overnight at 4° C. Afterwards, membranes were washed 3 times with TBS-Tween and incubated with HRP-conjugated secondary antibodies at 1:20,000 dilution for 1 hour at room temperature.

T1 sequence (Q9P2K8 whole entry): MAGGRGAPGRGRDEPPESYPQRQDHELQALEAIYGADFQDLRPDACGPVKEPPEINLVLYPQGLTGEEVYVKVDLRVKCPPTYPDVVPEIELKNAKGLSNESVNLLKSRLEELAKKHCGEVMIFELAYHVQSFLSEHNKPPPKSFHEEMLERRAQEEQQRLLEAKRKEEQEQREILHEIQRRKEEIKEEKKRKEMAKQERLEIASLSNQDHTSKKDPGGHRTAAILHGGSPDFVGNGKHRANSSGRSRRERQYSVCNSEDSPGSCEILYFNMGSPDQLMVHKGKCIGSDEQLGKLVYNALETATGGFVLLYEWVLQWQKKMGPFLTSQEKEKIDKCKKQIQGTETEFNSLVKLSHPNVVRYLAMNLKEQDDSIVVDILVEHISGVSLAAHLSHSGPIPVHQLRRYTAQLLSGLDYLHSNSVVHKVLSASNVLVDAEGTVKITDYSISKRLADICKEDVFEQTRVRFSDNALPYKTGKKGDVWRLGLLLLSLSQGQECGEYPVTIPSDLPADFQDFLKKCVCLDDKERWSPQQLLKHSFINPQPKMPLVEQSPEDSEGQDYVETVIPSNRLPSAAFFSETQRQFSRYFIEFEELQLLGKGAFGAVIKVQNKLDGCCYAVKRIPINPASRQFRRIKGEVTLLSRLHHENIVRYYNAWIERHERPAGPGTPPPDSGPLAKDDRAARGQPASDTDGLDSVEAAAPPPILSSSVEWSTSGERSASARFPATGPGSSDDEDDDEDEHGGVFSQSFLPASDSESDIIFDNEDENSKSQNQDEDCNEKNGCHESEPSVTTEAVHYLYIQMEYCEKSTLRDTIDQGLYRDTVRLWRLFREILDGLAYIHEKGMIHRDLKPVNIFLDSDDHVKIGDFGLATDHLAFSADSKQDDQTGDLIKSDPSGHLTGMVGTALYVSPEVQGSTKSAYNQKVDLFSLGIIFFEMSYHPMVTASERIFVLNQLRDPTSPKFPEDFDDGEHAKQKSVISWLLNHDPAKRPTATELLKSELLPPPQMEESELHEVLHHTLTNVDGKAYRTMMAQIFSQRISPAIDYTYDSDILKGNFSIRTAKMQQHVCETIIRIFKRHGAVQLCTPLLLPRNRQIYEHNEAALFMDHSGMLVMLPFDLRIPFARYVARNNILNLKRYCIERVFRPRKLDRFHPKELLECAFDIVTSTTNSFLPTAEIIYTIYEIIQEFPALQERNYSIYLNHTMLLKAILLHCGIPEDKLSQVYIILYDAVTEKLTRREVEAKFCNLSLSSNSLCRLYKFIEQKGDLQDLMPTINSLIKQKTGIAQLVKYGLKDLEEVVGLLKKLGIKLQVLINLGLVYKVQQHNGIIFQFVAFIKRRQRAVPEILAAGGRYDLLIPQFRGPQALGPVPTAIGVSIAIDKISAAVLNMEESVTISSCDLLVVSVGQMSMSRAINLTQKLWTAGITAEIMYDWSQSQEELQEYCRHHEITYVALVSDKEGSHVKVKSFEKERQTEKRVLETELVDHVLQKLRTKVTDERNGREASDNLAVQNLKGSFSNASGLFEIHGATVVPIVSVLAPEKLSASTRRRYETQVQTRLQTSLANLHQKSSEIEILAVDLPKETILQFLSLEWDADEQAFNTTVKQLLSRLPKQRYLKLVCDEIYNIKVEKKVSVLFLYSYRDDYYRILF

Row | Structure (SMILES) | pIC50 (GCN2 [1]) | activation of GCN2 (P-GCN2 expression) upon arginine depletion (GCN2 [2]) | p21 expression (GCN2 [2])
1 | COc1ncc(Cl)cc1S(=O)(=O)Nc1ccc(F)c(-c2ccc3nc(N)ncc3c2)c1F [Compound 1] | 7.00 to 8.00 | prevented the activation of GCN2 upon arginine depletion | p21 expression is induced
2 | Nc1ncc2cc(-c3c(F)ccc(NS(=O)(=O)c4cc(Cl)ccc4Cl)c3F)ccc2n1 [Compound 2] | > 8.00 | prevented the activation of GCN2 upon arginine depletion | p21 expression is induced
